Experimental data published in patent publication US7977384B1, “Anticancer tobacco cembranoids” (The University of Louisiana at Monroe, priority 2007, dated 2011).
pIC50: −log10 of the molar value. Read-outs that look alike come from different tables or passages of the source. Ends that are not written are not given here.

Key:
PC-3M cells [1] = assay: […] invasion assay; format: cell-based, human
Method: Invasion assays were conducted in 24-well, two compartmented, invasion chambers sold under the trademark “[sequence]” and available from Becton Dickinson, Bedford, Mass. Exponentially growing prostate cancer cell line was serum-starved for 24 hours with basal RPMI medium containing no serum or growth factors (but containing 0.1% BSA, 10 mM HEPES, 4 mM L-glutamine, 100 IU/mL penicillin G and 100 mg/mL streptomycin). The cells were then harvested and seeded at a density of 25×10^3 cells/well in the upper insert of the [sequence] invasion chamber. The lower chamber received the chemo-attractant medium, which consisted of 90% basal RPMI medium and 10% conditioned medium from the cultures of PC-3M cells expressing active Gas protein. The incubations were carried out for 24 hours, after which the [sequence] […] The number of cells migrated on the outer bottom side of the insert was counted under the microscope in six or more randomly selected fields (magnification: 100×). The final results were expressed as mean +/− SEM per 100× field. […]
To correct this probability, the growth rate of PC-3M cells was determined under identical culture conditions. […] Mean percent increase in the cell number was determined at the end of the incubation period by counting the net increase in the number of cells. […]

PC-3M cells [2] = assay: MTT proliferation assay, prostate cell line PC-3M; format: cell-based, human; conditions: 50 nM dose
Method: Proliferation of PC-3M MTT Assays. The growth of prostate cell line PC-3M was measured by 3-(4,5-dimethylthi-azol-2yl)-2,5-diphenyl tetrazolium bromide (MTT) assay. Exponentially growing cells were plated in a 96-well plate at a density of 8×10^3 cells per well and allowed to attach for 24 hours. Complete growth medium was replaced with 100 μl of RPMI serum-free medium (GIBCO-Invitrogen, NY) and culture continued at 37° C. under 5% CO2. After 24 hours of culture, the cells were treated with MTT solution at 37° C. for 4 hours. The color reaction was stopped by the addition of solubilization/stop solution (100 μl/well), and the incubation at 37° C. continued to completely dissolve the formazan product. Absorbance of the samples was determined at 595 nm with an ELISA plate reader (Bio-Rad, Hercules, Calif.).

PC-3M cells [3] = assay: Transepithelial resistance (TER), stability of junctional complexes; format: cell-based, human
Method: Stability of junctional complexes can be estimated by the measurement of transepithelial resistance (TER). Cells were plated at confluency and grown on six well Transwell filters (0.4 μm pore size) in complete medium. TER values were measured in duplicate wells in every 12 hours using EVOM voltohmmeter (World Precision Instruments). The TER values were normalized to the area of the monolayer filter, and calculated by subtracting the blank values from the filter and bathing medium. All cell culture media were supplemented with 25 mM Hepes, pH 7.4, and the integrity and cell density of monolayers were carefully monitored during TER measurement studies.

[4] = Substrate control (tested compound in blank media without microorganisms); format: physicochemical; conditions: 14 days
From the text: This conclusion was based on the rapid enzymatic actetate hydrolysis by most microbial species during biocatalytic screening while compound 22 was stable for 14 days in substrate control (tested compound in blank media without microorganisms).

[5] = test system: highly malignant +SA mouse mammary epithelial cell line; assay: Antiproliferative MTT assay on +SA mammary epithelial cells; format: cell-based; conditions: for pIC50: 4-day culture, MTT
Method: The antiproliferative effects of semisynthetic derivatives were tested in culture on the highly malignant +SA mouse mammary epithelial cell line maintained on serum-free media and containing 10 ng/mL EGF and 10 μg/mL insulin as mitogens. […] After a 4-day culture period, viable +SA cell number was determined by the 3-(4,5-dimethylthi-azol-2yl)-2,5-diphenyl tetrazolium bromide (MTT) colorimetric assay.

PC-3M cells [6] = assay: Growth rate of PC-3M cells by cell counting (correction for the invasion assay); format: cell-based, human; conditions: CT 50 nM, 1-24 hours; vehicle control=1
Method: To correct this probability, the growth rate of PC-3M cells was determined under identical culture conditions. 25×10^3 cells were plated at hourly intervals in six-well dishes and cultured with/without CT (50 nM) for 1-24 hours. Mean percent increase in the cell number was determined at the end of the incubation period by counting the net increase in the number of cells. […] This correction was applied to the results of invasion assays.

PC-3M cells [7] = assay: Permeability assay (paracellular diffusion of dextran); format: cell-based, human; conditions: CT alone
Method: Permeability assay (Paracellular diffusion of Dextran). Cells were plated at confluency and grown on 12 well Transwell filters in complete medium for optimum TER development. Tetramethyl-rhodamine-dextran, with an average molecular mass of 4 kDa (available from Sigma in St. Louis, Mo.) dissolved in Hanks' Balanced Salt Solution (HBSS) to a concentration of 1 mg/ml was added to the upper chamber. The lower chamber was replaced with HBSS. At various time intervals, 100 μl aliquots were collected from the lower chamber and assayed […] spectrophotometer using excitation 530 and emission 590.

[8] = 15-40 μM dose, compared to vehicle controls

C/C1=C\[C@H](O)C[C@@](C)(O)/C=C/[C@H](C(C)C)C[C@@H](O)/C(C)=C/CC1 [Compound 7, (1S,2E,4R,6R,7E,11E,13R)-2,7,11-cembratriene-4,6,13-triol]
anti-invasive activity (PC-3M cells [1]; 50 nM dose): potent anti-invasive activity | cytotoxicity (PC-3M cells [2]): without cytotoxicity

CCNC(=O)O[C@H]1/C=C(/C)CC/C=C(\C)CC[C@@H](C(C)C)/C=C/[C@](C)(O)C1 [Compound 9, 6-O-[N-(ethyl)carbamoyl](1S,2E,4R,6R,7Z,11E)-2,7,11-cembratriene-4,6-diol]
stabilization of junctional complexes (PC-3M cells [3]; baseline and CT-stimulated TER and paracellular permeability): stabilized junctional complexes

CC(=O)O[C@H]1/C=C(/C)CC/C=C(\C)CC[C@@H](C(C)C)/C=C/[C@@](C)(O)C1 [Compound 22, 6-O-acetyl-(1S,2E,4S,6R,7Z,11E)-2,7,11-cembratriene-4,6-diol]
stability in substrate control [4]: stable | antiproliferative activity [5]: reduced activity

CC(=O)O[C@H]1/C=C(\C)CC/C=C(\C)[C@H](O)C[C@@H](C(C)C)/C=C/[C@@](C)(O)C1 [Compound 25, (1S,2E,4S,6R,7E,11E,13R)-2,7,11-cembratriene-4,6,13-triol-6-O-acetate]
pIC50 [5]: 4.52 | antiproliferative activity [5, 8]: potent antiproliferative activity

CC(=O)O[C@H]1/C=C(\C)CC/C=C(\C)[C@@H](O)C[C@@H](C(C)C)/C=C/[C@@](C)(O)C1 [Compound 26, (1S,2E,4S,6R,7E,11E,13S)-2,7,11-cembratriene-4,6,13-triol-6-O-acetate]
antiproliferative activity [5]: much more active than the 13R | pIC50 [5]: 4.70 | antiproliferative activity [5, 8]: potent antiproliferative activity

CC(=O)O[C@H]1/C=C(\C)CC[C@@H]2OC(=N)S[C@@]2(C)CC[C@@H](C(C)C)/C=C/[C@@](C)(O)C1 [Compound 28, 6-O-acetyl-(1S,2E,4S,6R,7Z,11S,12S)-2,7-cembradiene-11,12-oxathiaol-21-imino-4,6-diol]
antiproliferative activity [5]: devoid of activity

C/C1=C\C(=O)C[C@](C)(O)/C=C/[C@H](C(C)C)CC/C(C)=C/CC1 [Compound 29, (1S,2E,4S,7E,11E)-2,7,11-cembratriene-4-ol-6-one]
antiproliferative activity [5]: low antiproliferative activity

C/C1=C/C(=O)C[C@](C)(O)/C=C/[C@H](C(C)C)CC/C(C)=C/CC1 [Compound 30, (1S,2E,4S,6R,7E,11E)-2,7,11-cembratriene-4-ol-6-one]
antiproliferative activity [5]: potent antiproliferative agent | antiproliferative activity [5, 8]: potent antiproliferative activity | pIC50 ([5]; Mus musculus, Epithelial cell, 96 h): 4.82 | activity relative to parent compound 21 ([5]; at higher doses): no more active

CC(=O)/C=C/C(CC/C(C)=C/CC/C(C)=C/C(C)=O)C(C)C (stereo not shown) [Compound 31, (3E,7E,12E)-11-isopropyl-4,8-dimethylpentadeca-3,7,12-triene-2,14-dione]
antiproliferative activity [5, 8]: potent antiproliferative activity

CC(C)=CCC/C(C)=C/CC/C(C)=C/CC[C@]1(C)CCc2cc(O)cc(C)c2O1 [δ-tocotrienol, reference compound]
pIC50 [5]: 5.15

Calcitonin (CGNLSTCMLGTYTQDFNKFHTFPQTAIGVGAP; ends and bridges not checked; cysteine pairing not given here; UniProt P01258 85-116, looked up) [CT, reference compound]
relative CT-induced increase in cell number, pooled results of all time points (PC-3M cells [6]): 1.19 | increase in the number of invaded cells (PC-3M cells [1]; pooled data of multiple experiments): two-fold | effect on TER of PC-3M cell cultures (PC-3M cells [3]; 50 nM CT): dramatic reduction | paracellular permeability of PC-3M cells (PC-3M cells [7]): increased
